{"source": "patent US20230201382A1", "about": "“RADIOLIGANDS FOR MYELIN” (CASE WESTERN RESERVE UNIVERSITY, priority 2016, published 2023)", "key": {"myelin [1]": {"tested_on": "myelin", "assay": "In vitro tissue staining and fluorescent intensity ratio, mouse brain sections (Example 1)", "type": "binding", "details": "1 mM staining solution, 25 min", "description": "Wild-type mice (20-22 g, 8 weeks old) were deeply anesthetized and perfused transcardially with precooled saline (4° C., 10 mL/min for 1 min followed by 7 mL/min for 6 min) followed by fixation with precooled 4% PFA in PBS (4° C., 10 mL/min for 1 min followed by 7 mL/min for 6 min). Brain tissues were then removed, postfixed by immersion in 4% PFA overnight, dehydrated in 10%, 20%, and 30% sucrose solution, embedded in a freezing compound (OCT, Fisher Scientific, Suwanee, Ga.), and sectioned at […] with a cryostat (Thermo HM525, Thermo Fisher Scientific Inc., Chicago, Ill., USA). […] Sections were then examined under a microscope (Leica DM4000B, Leica Microsystem Inc., Buffalo Grove, Ill., USA) equipped for fluorescence (DFC7000T), and images of the stained mouse whole brain sections were acquired with the same exposure time. ImageJ software was then used to quantify pixel intensity values on 6 sections of each tested compound. […] Images were analyzed by two experienced individuals. The FIR of white matter to gray matter were then calculated.\nIn vitro Staining and Assay of the Fluorescent Intensity. […] Next, we selected a representative region in the genus of the corpus callosum (gcc) and a representative region in the subcortical gray matter (cortex) and calculated the fluorescent intensity ratio (FIR) between both regions (FIG. 2A). […]"}, "myelin [2]": {"tested_on": "myelin", "assay": "In situ staining after tail vein injection (Example 2)", "type": "in vivo, mouse", "details": "1.0 mg (50 mg/kg) tail vein, WT mice, 1 h", "description": "Wild-type mice were administered the newly synthesized compounds (40 mg/kg) via tail vein injection, and 30-60 min later the mice were perfused transcardially with saline followed by 4% PFA in PBS. Brains and spinal cords were then removed, postfixed by immersion in 4% PFA overnight, dehydrated in 30% sucrose solution, cryostat sectioned at 100 μm, mounted on superfrost slides, and images were acquired directly using a Leica fluorescent microscope.\nFollowing the in vitro studies, we then investigated the ability of compound 21 to readily enter the brain and bind to myelin in situ. A dose of 1.0 mg of compound 21 (50 mg/kg) was administered via the tail vein to wild-type (WT) mice. One hour after injection, the mice were perfused with saline followed by 4% paraformaldehyde (PFA) and the brain and spinal cord were removed and sectioned. The distribution of compound 21 was then directly examined under a fluorescent microscope."}, "myelin [3]": {"tested_on": "myelin", "assay": "In vitro detection of focal demyelination, LPC rat model", "type": "binding", "details": "LPC-induced focal demyelination, rat brain sections", "description": "Sprague-Dawley female rats (220-250 g, 8 weeks old) were anesthetized and positioned in a stereotaxic frame (Stoelting). A small incision was made in the scalp, and the corpus callosum was targeted using the following stereotaxic coordinates, relative to bregma: anterior-posterior, 0.0 mm; medial-lateral, 2.0 mm; and dorsal-ventral, 3.4 mm. A small hole was drilled in the skull, and a 26S-gauge needle attached to a 10 μL Hamilton Syringe was lowered into the corpus callosum according to the dorsal-ventral coordinate. A microinjector pump (Stoelting) controlled the infusion of 6 μL of lysolecithin (LPC, 0.1% in saline) at a rate of 0.25 μL/min, after which the needle was left in place for 2 min in order to prevent liquid reflux out of the brain parenchyma. The incision was then closed using 5-0 Ethicon sutures, and the animals were allowed to recover on a heating pad. After 5-7 days, the animals were ready for study.\nFive days after surgery, the rats were anesthetized and perfused with saline followed by 4% PFA. […] Sections were then examined under a microscope (Leica DM4000B, Leica Microsystem Inc., Buffalo Grove, Ill., USA) equipped for fluorescence (DFC7000T), and images of the stained mouse whole brain sections were acquired with the same exposure time. […]"}, "myelin [4]": {"tested_on": "myelin", "assay": "Quantitative microPET/CT imaging in Shiverer and WT mice", "type": "in vivo, mouse", "details": "SUVs from 40 to 60 min", "description": "(§1) For better anatomic localization, CT coregistration was applied.\nTo further evaluate the in vivo binding specificity of [^18F]21, we investigated the pharmacokinetic profiles of [^18F] 21 in a Shiverer mouse model that is deficient in myelin in the brain. Thus, the pharmacokinetic profiles of [^18F]21 were quantitatively compared between Shiverer mice (C3Fe.SWV-Mbpshi/J, n=2) and age-matched WT mice (CB57J, n=2).\nDynamic emission scans were acquired for 60 min in 3D list mode immediately after [^18F]21 (0.3 mCi each mouse, 11.1 MBq) was administered. The brain uptake of [^18F]21 was lower in the Shiverer brain than in the WT littermates (1.25 vs 1.64). After the brain concentration of [^18F]21 reached a plateau, the SUVs from 40 to 60 min were summarized and compared."}, "myelin [5]": {"tested_on": "myelin", "assay": "Quantitative microPET/CT imaging in WT rats (Example 2)", "type": "in vivo, rat", "description": "as §1\nFollowing radiosynthesis, the pharmacokinetic profile of [^18F]21 was fully characterized by quantitative microPET/CT imaging in WT rats (n=3). […] The brain radioactivity peaked at 3 min postinjection followed by rapid clearance before reaching a plateau at 40-60 min postinjection."}, "myelin [6]": {"tested_on": "myelin", "assay": "Quantitative microPET/CT imaging of spinal cord, rat SCI model", "type": "in vivo", "description": "Sprague-Dawley female rats (220-250 g, 8 weeks old) were anesthetized and a restricted laminectomy was conducted to expose the dorsal surface of T13. The vertebral column between T12 and L1 was then stabilized with clamps and forceps fixed to the base of an Infinite Horizon impact device. The midpoint of T13 was impacted with a force of 250 kDyn using a 2.5 mm stainless steel impactor tip, which was used to induce a moderately severe contusive injury to the spinal cord. The musculature was then sutured over the laminectomy site and the skin closed with wound clips followed by subsequent treatment with Marcaine at the incision site. The force/displacement graph was used to monitor impact consistency. After surgery, the animals were carefully monitored daily for pain and body weight with manual bladder expression 2-3 times daily to stimulate reflex voiding until the animals could urinate independently.\nas §1\nSo far, imaging of the spinal cord remains a great challenge. […] Next, we asked whether [18F]21 PET is capable of in vivo imaging of myelin deficiency or myelin damage in living animal models. We conducted [^18F]21-PET imaging in a rat model of thoracic contusive SCI. In this model, the contusion was made at T13 to introduce demyelination. In vivo [^18F]21 PET imaging was performed before (as a baseline scan) and 1 day after contusion. The uptake of [^18F]21 in every spine segment was then normalized to the average spine uptake. […] After microPET/CT imaging, we conducted in situ histological staining of the spinal cord 60 min after injection of nonlabeled compound 21 through the tail vein."}, "myelin [7]": {"tested_on": "myelin", "assay": "In situ autoradiography of mouse brain (Example 2)", "type": "in vivo", "details": "mouse brain coronal sections", "description": "Wild-type mice were euthanized at 30 min post iv injection of [^18F]21 (111 MBq, 3.0 mCi). The brains were rapidly removed, placed in OCT embedding medium, and frozen at −20° C. After reaching equilibrium at this temperature, the brains were coronally sectioned at 60 μm on a cryostat and mounted on superfrost slides. After drying by air at room temperature, the slides were put in a cassette and exposed for 20 min to film to obtain images.\nTo validate the PET results and confirm that the PET signals were indeed from specific binding to myelin, we conducted ex vivo autoradiography in the mouse brain following administration of [^18F]21 through tail vein injections. After 1 h, the mouse brain was dissected for coronal tissue sectioning. […] Thus, combination of in situ autoradiography and PET imaging confirmed that [^18F]21 binds specifically to myelin in vivo."}}, "data": [{"smiles": "CNc1ccc(/C=C/c2ccc(N)c(OCCF)c2)cc1", "note": "[Compound 32, (E)-4-(4-Amino-3-(2-fluoroethoxy)styryl)-N-methylaniline]", "values": [{"measurement": "fluorescent intensity ratio (FIR) white matter (gcc) vs gray matter (cortex)", "setting": "myelin [1]", "value": "> 2"}]}, {"smiles": "CC(C)Nc1ccc(/C=C/c2ccc(N)c(OCCF)c2)cc1", "note": "[Compound 35, (E)-4-(4-Amino-3-(2-fluoroethoxy)styryl)-N-isopropylaniline]", "values": [{"measurement": "fluorescent intensity ratio (FIR) white matter (gcc) vs gray matter (cortex)", "setting": "myelin [1]", "value": "> 2"}]}, {"smiles": "CNc1ccc(/C=C/c2ccc(NCc3cn(CCF)nn3)cc2)cc1", "note": "[Compound 21, (E)-N-((1-(2-Fluoroethyl)-1H-1,2,3-triazol-4-yl)methyl)-4-(4-(methylamino)styryl)aniline]", "values": [{"measurement": "brain and spinal cord entry and myelin binding in situ", "setting": "myelin [2]", "value": "readily entered the brain and spinal cord and localized in all the myelinated regions in proportion to the myelin content"}, {"measurement": "brain and spinal cord entry and myelin binding in situ", "setting": "myelin [2]; listed as TAFDAS", "value": "readily penetrates the BBB and binds to myelin membranes in the brain and spinal cord"}, {"measurement": "detection of demyelinated lesion by fluorescent staining", "setting": "myelin [3]", "value": "capable of detecting the demyelinated focal lesion by fluorescent staining"}]}, {"smiles": "CNc1ccc(/C=C/c2ccc(NCc3cn(CC[18F])nn3)cc2)cc1", "note": "[[^18F]21]", "values": [{"measurement": "uptake at 40-60 min, Shiverer vs control", "setting": "myelin [4]", "value": "significantly decreased compared to the control mouse brain"}, {"measurement": "uptake in the brain", "setting": "myelin [5]", "value": "high uptake in the brain"}, {"measurement": "time of peak brain radioactivity", "setting": "myelin [5]; postinjection", "value": 3, "unit": "min"}, {"measurement": "uptake at L1 normalized to average spine uptake", "setting": "myelin [6]; 1 day post-T13 contusion", "value": 1.08}, {"measurement": "uptake at T12 normalized to average spine uptake", "setting": "myelin [6]; 1 day post-T13 contusion", "value": 0.99}, {"measurement": "uptake at T13 normalized to average spine uptake", "setting": "myelin [6]; 1 day post-T13 contusion (SCI group)", "value": 0.81}, {"measurement": "uptake at L1 normalized to average spine uptake", "setting": "myelin [6]; before contusion (baseline)", "value": 1.05}, {"measurement": "uptake at T12 normalized to average spine uptake", "setting": "myelin [6]; before contusion (baseline)", "value": 0.99}, {"measurement": "uptake at T13 normalized to average spine uptake", "setting": "myelin [6]; before contusion (baseline)", "value": 1.02}, {"measurement": "labeling in ex vivo autoradiography", "setting": "myelin [7]", "value": "distinctly labeled the corpus callosum"}]}]}
